Earlier results on three compounds are cited in US10983136B2 (DiaSorin S.p.A., priority 2013, dated 2021).

Data set [1] has as its target T1, vitamin D binding protein (DBP) (Homo sapiens, UniProt P02774).
T1 sequence (P02774 17-474): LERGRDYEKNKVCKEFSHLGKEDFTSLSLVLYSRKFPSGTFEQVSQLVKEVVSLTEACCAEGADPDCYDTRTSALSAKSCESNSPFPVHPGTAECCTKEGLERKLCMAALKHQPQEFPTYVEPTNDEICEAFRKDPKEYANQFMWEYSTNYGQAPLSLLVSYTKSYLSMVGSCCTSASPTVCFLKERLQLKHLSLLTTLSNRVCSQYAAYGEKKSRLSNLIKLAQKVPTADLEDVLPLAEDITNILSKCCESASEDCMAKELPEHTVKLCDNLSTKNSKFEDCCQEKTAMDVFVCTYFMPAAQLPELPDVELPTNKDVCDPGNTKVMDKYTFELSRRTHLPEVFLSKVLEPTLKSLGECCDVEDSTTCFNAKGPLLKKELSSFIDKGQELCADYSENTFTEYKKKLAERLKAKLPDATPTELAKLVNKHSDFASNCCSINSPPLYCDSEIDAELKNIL
The following applies: association constant.

The conditions of data set [2]: in circulation, under normal circumstances.
Data set [3] has as its target T1, vitamin D binding protein (DBP). The note with it: same pH value (above 6, preferably above 7).

With vitamin D, the “Ka (affinity of DBP)” value in data set [1] is 4e+07 M⁻¹.
Turning to `C=C1/C(=C\C=C2/CCC[C@]3(C)[C@@H]([C@H](C)CCCC(C)(C)O)CC[C@@H]23)C[C@@H](O)C[C@@H]1O` [1,25(OH)2D, 1,25-dihydroxyvitamin D], the free form result in data set [2] was “approximately 0.4%”.
Take `C=C1CC[C@H](O)C/C1=C/C=C1\CCC[C@]2(C)[C@@H]([C@H](C)CCCC(C)(C)O)CC[C@@H]12` [25(OH)D, 25-hydroxyvitamin D]: in data set [1], the “Ka (affinity of DBP)” value was 5e+08 M⁻¹. In addition, in data set [2], the free form result is reported as “approximately 0.03%”. For the same compound, in data set [3], the “greater affinity of DBP for 25(OH)D over 1,25(OH)2D” value is recorded as “about 1000 fold”.
